The source of these data is PMC8362273 (Molecular cell, 2020).

The test system of one data set is Gsk(K383A). The data set is classed as biochemical, E. coli. The note with it: Figure 2F, S4A.
For data set [1], the system named is Gsk. The note with it: ref Kawasaki et al., 2000, cited from earlier work; for Km: Mori et al., 1995.
For data set [2], the target named is Gsk (inosine-guanosine kinase) (Escherichia coli, UniProt P0AEW6). Briefly: Isothermal titration calorimetry. The data set is classed as binding, E. coli. On the technique in general: Isothermal titration calorimetry measures the heat released or taken up as one component is titrated into another.
Data set [3] concerns Gsk. Briefly: Inosine/guanosine kinase. The format is biochemical, E. coli.
Data set [4] has as its system Gsk. The experiment in a line: Inosine kinase. The data set is classed as biochemical, E. coli. The note with it: GuaB-coupled assay (Figure 1C).
For a further data set, the system named is GuaB (IMP dehydrogenase). The experiment in a line: IMP-dehydrogenase. The note with it: ppGpp up to 1 mM (Figure S1B). The format is biochemical, E. coli.
Data set [5] has as its target PurA (adenylosuccinate synthase) (Escherichia coli, UniProt P0A7D4). The experiment in a line: ITC of ppGpp with PurA. The format is binding, E. coli.
In data set [6] the test system is Gsk variants R7A, F321A, K383A, S393A, Q396A. The note with it: each of R7A, in vitro (Figure 2G).
Data set [7] deals with the molecule itself. Briefly: SEC-MALS. Background: SEC sorts molecules by how far they enter the pores of the column.
Data set [8] concerns the molecule itself. The experiment in a line: SEC-MALS. The source holds these as a separate data set.
The data set “dynamic light scattering” concerns the molecule itself. The experiment in a line: dynamic light scattering.
The data set “crystal structure” concerns the molecule itself. Briefly: crystal structure.

Entries after “also recorded” stand apart in the source; their conditions may differ. Like-named read-outs stand apart in the source and are kept apart here.

Chain of PurA (adenylosuccinate synthase) (P0A7D4 whole entry): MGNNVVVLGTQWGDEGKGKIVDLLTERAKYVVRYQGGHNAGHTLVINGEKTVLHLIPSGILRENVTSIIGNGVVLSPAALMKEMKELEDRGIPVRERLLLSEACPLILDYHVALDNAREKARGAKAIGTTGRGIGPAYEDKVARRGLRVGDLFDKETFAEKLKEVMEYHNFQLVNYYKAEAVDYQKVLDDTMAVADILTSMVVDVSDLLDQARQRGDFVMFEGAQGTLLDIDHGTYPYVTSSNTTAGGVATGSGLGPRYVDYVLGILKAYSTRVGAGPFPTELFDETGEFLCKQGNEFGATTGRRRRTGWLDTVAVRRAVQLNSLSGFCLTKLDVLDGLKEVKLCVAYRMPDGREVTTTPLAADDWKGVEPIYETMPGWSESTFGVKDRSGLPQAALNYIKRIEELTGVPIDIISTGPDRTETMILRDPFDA

As to `Nc1nc2c(ncn2[C@@H]2O[C@H](COP(=O)(O)OP(=O)(O)O)[C@@H](O)[C@H]2O)c(=O)[nH]1` [GDP], the “sensitivity of Gsk(K383A) to inhibitor” value with Gsk(K383A) was “completely insensitive”. Moreover, the “feedback inhibition of Gsk” value in the data set on Gsk [1] is given as “provides feedback inhibition”.
The Km is the substrate concentration at which the rate is half of its maximum. For the molecule `Nc1nc2c(ncn2[C@@H]2O[C@H](CO)[C@@H](O)[C@H]2O)c(=O)[nH]1` [guanosine], the “gain in binding heat for guanosine when Gsk is bound to ppGpp” value in data set [2] (ITC, Gsk saturated with ppGpp vs without) is 8.7 kcal/mol. Moreover, the Km with Gsk [1] (read-out: Km of Gsk for guanosine) is 8 µM.
As for `O=c1[nH]cnc2c1ncn2[C@@H]1O[C@H](CO)[C@@H](O)[C@H]1O` [inosine], the Km with Gsk [1] (read-out: Km of Gsk for inosine) was 1500 µM.
As usually defined, the Kd is the concentration at which binding is half-saturated. In the case of `Nc1nc2c(ncn2[C@@H]2O[C@H](COP(=O)(O)OP(=O)(O)O)[C@@H](OP(=O)(O)OP(=O)(O)O)[C@H]2O)c(=O)[nH]1` [ppGpp, Guanosine tetraphosphate], the Kd came out at 0.1 µM in data set [2] and 61 µM in data set [5]. For the same molecule, the “affinity for Gsk relative to that for GDP (fold stronger)” value in [2] (ITC) was “about 20 fold”. Further, in data set [2] (ITC, Gsk pre-saturated with guanosine vs without), the “gain in binding heat of ppGpp when Gsk is bound to guanosine” value came out at 10.8 kcal/mol. Also, the “type of inhibition with respect to ATP” value in the data set on Gsk [3] (1 mM inosine, varied ATP-Mg) was “mixed-type inhibitor”. Besides, the “type of inhibition with respect to inosine” value with Gsk [3] (Lineweaver-Burk plotting, 5 mM ATP-Mg, varied inosine) is recorded as “counter-competitive, or cooperative, inhibitor”. Moreover, the “fold inhibition of Gsk by ppGpp binding” value in the data set on Gsk [3] (guanosine kinase activity, 50 nM Gsk (Figure 3J)) is reported as ~ 60 fold. The “inhibition of inosine- and guanosine-kinase activities of Gsk” value with Gsk [3] (in vitro, PK-LDH coupled (Figure S1A)) is recorded as “potently inhibited”. Moreover, the “inhibition of inosine-kinase activity compared with GDP” value in the data set with Gsk [4] is “stronger inhibitor than GDP”. Besides, the “inhibition of GuaB” value in the data set on GuaB (IMP dehydrogenase) is listed as “did not observe substantial inhibition; also recorded: could not reproduce the inhibition”. For the same molecule, the “sensitivity of Gsk(K383A) to inhibitor” value in the data set with Gsk(K383A) is “completely insensitive”. In addition, the “loss of sensitivity to ppGpp inhibition (fold less sensitive than WT Gsk)” value in data set [6] is “at least 5 fold”.
With `Nc1nc2c(ncn2[C@@H]2O[C@H](COP(=O)(O)OP(=O)(O)OP(=O)(O)O)[C@@H](OP(=O)(O)OP(=O)(O)O)[C@H]2O)c(=O)[nH]1` [pppGpp, Guanosine pentaphosphate], in data set [2] (ITC (Figure S2I, Table S1), compared with ppGpp), the “affinity for Gsk” value was “much weaker affinity”.

B1: Gsk, inosine-guanosine kinase (E. coli), wild type, traceless after Sumo release (enzyme, UniProt P0AEW6 1-434, looked up)
chain: MKFPGKRKSKHYFPVNARDPLLQQFQPENETSAAWVVGIDQTLVDIEAKVDDEFIERYGLSAGHSLVIEDDVAEALYQELKQKNLITHQFAGGTIGNTMHNYSVLADDRSVLLGVMCSNIEIGSYAYRYLCNTSSRTDLNYLQGVDGPIGRCFTLIGESGERTFAISPGHMNQLRAESIPEDVIAGASALVLTSYLVRCKPGEPMPEATMKAIEYAKKYNVPVVLTLGTKFVIAENPQWWQQFLKDHVSILAMNEDEAEALTGESDPLLASDKALDWVDLVLCTAGPIGLYMAGFTEDEAKRKTQHPLLPGAIAEFNQYEFSRAMRHKDCQNPLRVYSHIAPYMGGPEKIMNTNGAGDGALAALLHDITANSYHRSNVPNSSKHKFTWLTYSSLAQVCKYANRVSYQVLNQHSPRLTRGLPEREDSLEESYWDR
Broadly, the stoichiometry N is a count of units in the complex or per binding partner. B1: the “stoichiometry N” value in “SEC-MALS [7]” was determined as 2; in “SEC-MALS [8]”, 4.

B2: Gsk(L308S) (enzyme, E. coli, UniProt P0AEW6 1-434, looked up)
chain: MKFPGKRKSKHYFPVNARDPLLQQFQPENETSAAWVVGIDQTLVDIEAKVDDEFIERYGLSAGHSLVIEDDVAEALYQELKQKNLITHQFAGGTIGNTMHNYSVLADDRSVLLGVMCSNIEIGSYAYRYLCNTSSRTDLNYLQGVDGPIGRCFTLIGESGERTFAISPGHMNQLRAESIPEDVIAGASALVLTSYLVRCKPGEPMPEATMKAIEYAKKYNVPVVLTLGTKFVIAENPQWWQQFLKDHVSILAMNEDEAEALTGESDPLLASDKALDWVDLVLCTAGPIGLYMAGFTEDEAKRKTQHPSLPGAIAEFNQYEFSRAMRHKDCQNPLRVYSHIAPYMGGPEKIMNTNGAGDGALAALLHDITANSYHRSNVPNSSKHKFTWLTYSSLAQVCKYANRVSYQVLNQHSPRLTRGLPEREDSLEESYWDR
In the case of B2, in “dynamic light scattering”, the “stoichiometry N” value was determined as 2.

B3: Gsk, inosine-guanosine kinase (E. coli), crystallisation construct with N-terminal Gly-Ser-His scar (enzyme)
chain: GSHMKFPGKRKSKHYFPVNARDPLLQQFQPENETSAAWVVGIDQTLVDIEAKVDDEFIERYGLSAGHSLVIEDDVAEALYQELKQKNLITHQFAGGTIGNTMHNYSVLADDRSVLLGVMCSNIEIGSYAYRYLCNTSSRTDLNYLQGVDGPIGRCFTLIGESGERTFAISPGHMNQLRAESIPEDVIAGASALVLTSYLVRCKPGEPMPEATMKAIEYAKKYNVPVVLTLGTKFVIAENPQWWQQFLKDHVSILAMNEDEAEALTGESDPLLASDKALDWVDLVLCTAGPIGLYMAGFTEDEAKRKTQHPLLPGAIAEFNQYEFSRAMRHKDCQNPLRVYSHIAPYMGGPEKIMNTNGAGDGALAALLHDITANSYHRSNVPNSSKHKFTWLTYSSLAQVCKYANRVSYQVLNQHSPRLTRGLPEREDSLEESYWDR
For B3, in “crystal structure”, the binding result is listed as “binds”.
